Data as given in patent US10421754B2, “Quinazoline derivative” (CSPC ZHONGQI PHARMACEUTICAL TECHNOLOGY (SHIJIAZHUANG) CO., …, priority 2014, dated 2019).

Columns and labels:
[1] = biological target: PDGFRβ (Homo sapiens, UniProt P09619); assay: In vitro enzyme experiment (ELISA), PDGFRβ; type: biochemical; conditions: Poly (Glu, Tyr)4:1 substrate, 5 μM ATP
Description: PDGFRβ: Platelet-derived growth factor receptor β
(§1) ELISA: The enzyme plate was coated by enzyme reaction substrate (Poly (Glu, Tyr)4:1) at a density of 20 μg/ml. Then the enzyme, the sample and 5 μM ATP were mixed in the well to react. After the reaction, the substrate phosphorylation was detected by anti-phosphotyrosine monoclonal antibody (4G10). In the next step, the goat-anti-mouse IgG linking with horse radish peroxidase (HRP) and tetramethylbenzidine (TMB) were added sequentially in the well to evaluate the level of substrate phosphorylation by the degree of color depth. In the experiment, a blank group without tyrosine kinase and a control group with the corresponding concentration of DMSO were established. Finally, 50 μL/well of H2SO4 at a concentration of 0.18M was added in each well to stop the reaction. The optical density (OD) of each sample was measured in a micro-plate reader at 450 nm.
(§2) The relative inhibition rate of the compound against tyrosine kinase protein was determined.
(§3) According to the inhibition rates at different concentrations, IC50 was calculated by LOGIT method. The experiments were repeated three times, and the average of three IC50 values was the final index to evaluate the ability of inhibition.

[2] = biological target: BTK (Homo sapiens, UniProt Q06187); assay: In vitro enzyme experiment (ELISA), BTK; type: biochemical; conditions: Poly (Glu, Tyr)4:1 substrate, 5 μM ATP
Sequence of BTK (Q06187 whole entry, species assumed): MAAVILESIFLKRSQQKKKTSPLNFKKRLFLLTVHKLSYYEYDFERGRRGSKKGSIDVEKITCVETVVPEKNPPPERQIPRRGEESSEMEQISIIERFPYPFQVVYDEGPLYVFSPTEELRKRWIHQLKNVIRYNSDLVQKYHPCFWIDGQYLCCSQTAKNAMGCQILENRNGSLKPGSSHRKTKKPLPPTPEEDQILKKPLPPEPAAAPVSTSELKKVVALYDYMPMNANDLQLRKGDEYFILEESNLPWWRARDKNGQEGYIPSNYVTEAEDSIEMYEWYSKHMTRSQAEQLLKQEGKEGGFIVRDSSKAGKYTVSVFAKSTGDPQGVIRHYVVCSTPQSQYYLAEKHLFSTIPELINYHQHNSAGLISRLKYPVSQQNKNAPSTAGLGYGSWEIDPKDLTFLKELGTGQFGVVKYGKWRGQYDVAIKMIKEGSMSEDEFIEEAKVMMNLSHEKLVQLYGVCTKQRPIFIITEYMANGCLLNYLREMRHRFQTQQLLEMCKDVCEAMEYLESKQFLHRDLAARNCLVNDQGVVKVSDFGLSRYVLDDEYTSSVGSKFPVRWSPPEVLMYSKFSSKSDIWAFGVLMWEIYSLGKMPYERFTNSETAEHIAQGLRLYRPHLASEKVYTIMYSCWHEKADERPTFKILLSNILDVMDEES
Description: BTK: Bruton tyrosine kinase
as §1, §2, §3

[3] = test system: A375; assay: In vitro cell experiment (MTT), A375; type: cell-based; conditions: A-375, 72 h, human melanoma cells (KDR expressing)
Description: (§4) Cells in logarithmic growth phase were seeded at a certain density in a 96-well plate (200 μL/well). The cells were allowed to grow for 24 h and subsequently treated with different concentrations of drugs (including a blank group and a control group) and incubated for 72 h at 37° C. Each concentration in a given experiment was tested in triplicate. After 72 h of exposure, 20 μL of the MTT labeling reagent was added to the medium (the final concentration of MTT was 0.5 mg/mL), and the cells were incubated for additional 4 h at 37° C. Following this process, 180 μL of the medium was removed and 130 μL of DMSO was added to each well, or the medium was completely removed and 150 μL of DMSO was added to each well. Then the plate was shaken and mixed in a micro-oscillator. Finally the optical density (OD) of each sample was measured in a micro-plate reader at 550 nm. Cell inhibition rate was calculated according to the following formula: […]
(§5) According to cell inhibition rates, IC50 was calculated by LOGIT method. The experiments were repeated twice and the data was expressed as means±SD.

[4] = biological target: RET (Homo sapiens, UniProt P07949); assay: In vitro enzyme experiment (ELISA), RET; type: biochemical; conditions: Poly (Glu, Tyr)4:1 substrate, 5 μM ATP
Sequence of RET (P07949 29-1114, species assumed): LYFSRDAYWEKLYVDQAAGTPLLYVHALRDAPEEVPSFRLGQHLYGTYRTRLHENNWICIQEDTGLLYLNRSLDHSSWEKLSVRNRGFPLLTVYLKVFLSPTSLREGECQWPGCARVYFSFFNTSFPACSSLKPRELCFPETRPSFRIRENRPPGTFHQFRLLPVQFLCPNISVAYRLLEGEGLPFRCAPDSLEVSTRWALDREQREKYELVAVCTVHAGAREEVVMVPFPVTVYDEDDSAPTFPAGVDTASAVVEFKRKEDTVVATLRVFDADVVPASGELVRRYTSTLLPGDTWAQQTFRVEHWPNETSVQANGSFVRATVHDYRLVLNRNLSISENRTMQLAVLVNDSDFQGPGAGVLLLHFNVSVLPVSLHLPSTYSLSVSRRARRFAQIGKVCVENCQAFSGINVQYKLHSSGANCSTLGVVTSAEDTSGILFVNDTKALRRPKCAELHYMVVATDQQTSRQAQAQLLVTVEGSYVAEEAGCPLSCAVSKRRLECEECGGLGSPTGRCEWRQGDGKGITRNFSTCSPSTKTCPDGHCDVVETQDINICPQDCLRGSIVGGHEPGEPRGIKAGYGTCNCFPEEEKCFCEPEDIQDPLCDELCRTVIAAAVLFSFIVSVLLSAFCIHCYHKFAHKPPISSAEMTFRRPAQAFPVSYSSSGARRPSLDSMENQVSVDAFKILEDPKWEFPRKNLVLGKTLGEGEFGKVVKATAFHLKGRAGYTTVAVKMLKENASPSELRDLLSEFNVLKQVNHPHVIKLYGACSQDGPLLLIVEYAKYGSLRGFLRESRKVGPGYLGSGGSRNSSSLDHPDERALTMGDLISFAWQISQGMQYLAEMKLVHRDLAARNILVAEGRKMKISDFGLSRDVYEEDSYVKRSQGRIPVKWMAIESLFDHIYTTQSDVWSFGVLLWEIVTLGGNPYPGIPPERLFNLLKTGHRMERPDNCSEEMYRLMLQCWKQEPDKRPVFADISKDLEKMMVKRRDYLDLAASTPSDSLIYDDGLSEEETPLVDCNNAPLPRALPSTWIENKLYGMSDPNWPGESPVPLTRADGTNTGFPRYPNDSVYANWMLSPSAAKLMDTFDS
Description: RET: A receptor involved in thyroid cancer
as §1, §2, §3

[5] = test system: A498; assay: In vitro cell experiment (MTT), A498; type: cell-based; conditions: 72 h, human renal carcinoma cells
Description: as §4, §5

[6] = test system: CFPAC-1; assay: In vitro cell experiment (MTT), CFPAC-1; type: cell-based; conditions: 72 h, human pancreatic carcinoma cells
Description: as §4, §5

[7] = test system: TT; assay: In vitro cell experiment (MTT), TT; type: cell-based; conditions: 72 h, human thyroid carcinoma cells (RET C634W mutation)
Description: as §4, §5

[8] = test system: PC-9; assay: In vitro cell experiment (MTT), PC-9; type: cell-based; conditions: 72 h, human non-small-cell lung carcinoma cells (EGFR1 19 exon mutation)
Description: as §4, §5

[9] = test system: HUVEC; assay: In vitro cell experiment (MTT), HUVEC; type: cell-based; conditions: 72 h, human umbilical vein endothelial cell (KDR overexpressing)
Description: as §4, §5

[10] = biological target: FLT-1 (Homo sapiens, UniProt P17948); assay: In vitro enzyme experiment (ELISA), FLT-1; type: biochemical; conditions: Poly (Glu, Tyr)4:1 substrate, 5 μM ATP
Sequence of FLT-1 (P17948 27-1338): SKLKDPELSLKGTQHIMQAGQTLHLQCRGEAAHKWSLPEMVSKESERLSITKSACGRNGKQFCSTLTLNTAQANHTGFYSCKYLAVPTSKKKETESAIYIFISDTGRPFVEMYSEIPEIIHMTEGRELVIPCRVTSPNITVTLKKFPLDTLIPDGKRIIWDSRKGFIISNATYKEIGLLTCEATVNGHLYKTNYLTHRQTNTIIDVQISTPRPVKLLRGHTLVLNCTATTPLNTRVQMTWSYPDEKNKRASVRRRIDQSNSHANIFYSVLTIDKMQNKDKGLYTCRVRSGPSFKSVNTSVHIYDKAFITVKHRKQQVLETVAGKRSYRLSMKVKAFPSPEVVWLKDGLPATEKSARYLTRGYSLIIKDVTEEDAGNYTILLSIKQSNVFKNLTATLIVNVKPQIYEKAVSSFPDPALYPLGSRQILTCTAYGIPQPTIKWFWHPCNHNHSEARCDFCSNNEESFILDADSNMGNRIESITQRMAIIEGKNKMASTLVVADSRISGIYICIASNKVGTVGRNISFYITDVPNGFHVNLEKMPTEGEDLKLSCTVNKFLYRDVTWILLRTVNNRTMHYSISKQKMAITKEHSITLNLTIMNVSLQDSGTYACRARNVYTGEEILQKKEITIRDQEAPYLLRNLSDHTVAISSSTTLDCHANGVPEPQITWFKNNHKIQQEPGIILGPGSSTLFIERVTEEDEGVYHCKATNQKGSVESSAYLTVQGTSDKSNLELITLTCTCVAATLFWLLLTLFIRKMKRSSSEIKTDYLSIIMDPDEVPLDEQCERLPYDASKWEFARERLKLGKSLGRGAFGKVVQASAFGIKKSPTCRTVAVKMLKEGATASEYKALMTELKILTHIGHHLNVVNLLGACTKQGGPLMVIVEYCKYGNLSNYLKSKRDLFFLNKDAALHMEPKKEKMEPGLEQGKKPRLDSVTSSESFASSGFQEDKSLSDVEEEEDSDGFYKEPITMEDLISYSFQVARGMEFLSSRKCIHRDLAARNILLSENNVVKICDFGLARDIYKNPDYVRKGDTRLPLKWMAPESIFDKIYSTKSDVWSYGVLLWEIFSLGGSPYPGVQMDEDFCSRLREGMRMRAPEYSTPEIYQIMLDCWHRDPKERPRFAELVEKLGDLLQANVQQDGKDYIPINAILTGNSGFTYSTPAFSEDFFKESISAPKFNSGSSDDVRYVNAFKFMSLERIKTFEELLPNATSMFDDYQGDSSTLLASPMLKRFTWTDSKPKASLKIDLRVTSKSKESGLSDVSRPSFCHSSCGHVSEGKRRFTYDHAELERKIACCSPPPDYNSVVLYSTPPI
Description: FLT-1: Human vascular endothelial growth factor receptor 1
as §1, §2, §3

[11] = biological target: EGFR (Homo sapiens, UniProt P00533); assay: In vitro enzyme experiment (ELISA), EGFR; type: biochemical; conditions: Poly (Glu, Tyr)4:1 substrate, 5 μM ATP
Sequence of EGFR (P00533 25-1210): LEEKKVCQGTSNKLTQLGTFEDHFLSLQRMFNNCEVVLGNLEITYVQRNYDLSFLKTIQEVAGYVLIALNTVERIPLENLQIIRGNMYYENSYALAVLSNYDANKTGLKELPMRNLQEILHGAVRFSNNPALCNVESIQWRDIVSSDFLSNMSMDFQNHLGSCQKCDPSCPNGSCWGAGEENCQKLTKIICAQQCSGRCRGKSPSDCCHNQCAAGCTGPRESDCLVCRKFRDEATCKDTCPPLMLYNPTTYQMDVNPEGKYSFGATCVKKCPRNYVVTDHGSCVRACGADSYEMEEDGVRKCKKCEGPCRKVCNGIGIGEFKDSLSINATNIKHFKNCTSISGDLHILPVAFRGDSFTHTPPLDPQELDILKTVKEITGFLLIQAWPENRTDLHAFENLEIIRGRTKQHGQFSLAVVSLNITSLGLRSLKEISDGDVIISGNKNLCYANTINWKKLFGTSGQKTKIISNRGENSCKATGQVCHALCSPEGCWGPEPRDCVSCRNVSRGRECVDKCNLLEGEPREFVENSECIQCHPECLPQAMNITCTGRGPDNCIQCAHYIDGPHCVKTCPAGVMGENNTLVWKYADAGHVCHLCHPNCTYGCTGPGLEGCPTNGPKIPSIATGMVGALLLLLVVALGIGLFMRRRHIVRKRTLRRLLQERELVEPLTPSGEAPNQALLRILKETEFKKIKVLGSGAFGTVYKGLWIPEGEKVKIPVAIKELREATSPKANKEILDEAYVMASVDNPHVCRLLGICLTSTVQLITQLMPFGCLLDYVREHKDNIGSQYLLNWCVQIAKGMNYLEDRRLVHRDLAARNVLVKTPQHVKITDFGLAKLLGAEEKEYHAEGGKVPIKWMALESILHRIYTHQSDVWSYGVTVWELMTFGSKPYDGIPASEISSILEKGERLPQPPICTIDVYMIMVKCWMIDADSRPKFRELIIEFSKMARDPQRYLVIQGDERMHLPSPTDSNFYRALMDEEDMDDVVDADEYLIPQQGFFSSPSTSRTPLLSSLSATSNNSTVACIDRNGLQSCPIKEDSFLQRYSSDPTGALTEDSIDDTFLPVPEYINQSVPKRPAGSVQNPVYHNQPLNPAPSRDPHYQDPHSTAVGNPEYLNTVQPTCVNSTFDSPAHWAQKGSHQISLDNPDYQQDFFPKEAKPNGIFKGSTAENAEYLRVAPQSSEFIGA
Description: EGFR: Human epidermal growth factor receptor 1
as §1, §2, §3

[12] = biological target: FGFR-1 (Homo sapiens, UniProt P11362); assay: In vitro enzyme experiment (ELISA), FGFR-1; type: biochemical; conditions: Poly (Glu, Tyr)4:1 substrate, 5 μM ATP
Sequence of FGFR-1 (P11362 22-822, species assumed): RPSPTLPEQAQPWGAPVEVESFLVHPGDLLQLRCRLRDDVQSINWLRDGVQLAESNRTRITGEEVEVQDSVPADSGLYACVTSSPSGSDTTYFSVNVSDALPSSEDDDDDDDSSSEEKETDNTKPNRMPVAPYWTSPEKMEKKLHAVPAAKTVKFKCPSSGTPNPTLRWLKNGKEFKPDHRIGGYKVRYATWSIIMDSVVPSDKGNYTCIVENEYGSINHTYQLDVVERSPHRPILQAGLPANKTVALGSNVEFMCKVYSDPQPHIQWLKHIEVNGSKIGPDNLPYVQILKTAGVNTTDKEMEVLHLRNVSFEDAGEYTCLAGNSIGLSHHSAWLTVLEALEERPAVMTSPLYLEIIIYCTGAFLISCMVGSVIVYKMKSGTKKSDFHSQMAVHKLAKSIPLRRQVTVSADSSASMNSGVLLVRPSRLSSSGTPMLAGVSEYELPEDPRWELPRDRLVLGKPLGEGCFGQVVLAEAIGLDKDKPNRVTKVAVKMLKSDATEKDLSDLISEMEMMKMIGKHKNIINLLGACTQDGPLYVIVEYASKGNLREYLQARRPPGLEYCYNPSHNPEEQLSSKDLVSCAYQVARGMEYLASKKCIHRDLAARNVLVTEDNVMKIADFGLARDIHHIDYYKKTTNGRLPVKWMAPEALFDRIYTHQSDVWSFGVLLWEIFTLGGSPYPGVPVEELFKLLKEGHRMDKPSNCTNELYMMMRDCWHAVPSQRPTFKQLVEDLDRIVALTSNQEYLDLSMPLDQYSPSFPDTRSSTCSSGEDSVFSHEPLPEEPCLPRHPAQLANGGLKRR
Description: FGFR-1: Fibroblast growth factor receptor 1
as §1, §2, §3

[13] = biological target: KDR (Homo sapiens, UniProt P35968); assay: In vitro enzyme experiment (ELISA), KDR; type: biochemical; conditions: Poly (Glu, Tyr)4:1 substrate, 5 μM ATP
Description: KDR: Human vascular endothelial growth factor receptor 2
as §1, §2, §3

[14] = Mouse maximum tolerated dose (MTD) experiment; conditions: in vivo, mice, oral, administered 7 days then observed 7 days
Description: In the mouse MTD experiment, the mice were administrated with the present compounds.
Healthy mice, having a small difference in body's weights, were chosen. The chosen mice were placed in different layers of cages according to their body's weights. In each layer, the mice were randomly divided into groups. In each group, there were three mice.
The administration dosages were 1000, 500, 250, 125, 62.5 and 31.25 mg/kg respectively and each two dosages differed by a factor of 2. For each of administration dosages, three mice were allotted. The mice were administrated with the present compounds for 7 days and then observed for the next 7 days without the present compounds.
The present compounds were orally administrated with the mice according to the administration dosage and the body weight.

[15] = test system: A431; assay: In vitro cell experiment (MTT), A431; type: cell-based; conditions: A-431, 72 h, human epidermoid carcinoma (EGFR1 overexpressing)
Description: as §4, §5

[16] = test system: Eca109; assay: In vitro cell experiment (MTT), Eca109; type: cell-based; conditions: ECa-109, 72 h, human esophageal carcinoma cells
Description: as §4, §5

[17] = test system: H292; assay: In vitro cell experiment (MTT), H292; type: cell-based; conditions: NCI-H292, 72 h, human lung carcinoma cells (EGFR1 overexpressing)
Description: as §4, §5

[18] = test system: A549; assay: In vitro cell experiment (MTT), A549; type: cell-based; conditions: 72 h, human non-small-cell lung carcinoma cells (EGFR1 wildtype)
Description: as §4, §5

[19] = test system: Bel-7402; assay: In vitro cell experiment (MTT), Bel-7402; type: cell-based; conditions: 72 h, human hepatoma carcinoma cells
Description: as §4, §5

[20] = test system: 3T3swiss; assay: In vitro cell experiment (MTT), 3T3swiss; type: cell-based; conditions: Fibroblast, 72 h, mouse fibroblasts (PDGFR overexpressing)
Description: as §4, §5

[21] = test system: HCT116; assay: In vitro cell experiment (MTT), HCT116; type: cell-based; conditions: HCT-116, 72 h, human colon carcinoma cells
Description: as §4, §5

[22] = biological target: AXL (Homo sapiens, UniProt P30530); assay: In vitro enzyme experiment (ELISA), AXL; type: biochemical; conditions: Poly (Glu, Tyr)4:1 substrate, 5 μM ATP
Description: as §1, with “AXL: Anaplastic lymphoma kinase Methods: ELISA:” for “ELISA:”, “nm. The relative inhibition rate of the compound against tyrosine kinase protein was determined. According to the inhibition rates at different concentrations, IC50 was calculated by LOGIT method. The experiments were repeated three times, and the average of three IC50 values was the final index to evaluate the ability of inhibition.” for “nm.”

[23] = test system: HT-29; assay: In vitro cell experiment (MTT), HT-29; type: cell-based; conditions: 72 h, human colon carcinoma cells (expressing both c-KIT and PDGFR)
Description: as §4, §5

[24] = test system: HCC827; assay: In vitro cell experiment (MTT), HCC827; type: cell-based; conditions: 72 h, human non-small cell lung carcinoma (EGFR1 19 exon mutation)
Description: as §4, §5

[25] = test system: SGC7901; assay: In vitro cell experiment (MTT), SGC7901; type: cell-based; conditions: SGC-7901, 72 h, human gastric carcinoma cells
Description: as §4, §5

[26] = test system: SK-OV-3; assay: In vitro cell experiment (MTT), SK-OV-3; type: cell-based; conditions: 72 h, human ovarian carcinoma cells (EGFR2 overexpressing)
Description: as §4, §5

| Compound | IC50 [1] [nM] | IC50 [2] [nM] | IC50 [3] [nM] | IC50 [4] [nM] | IC50 [5] [nM] | IC50 [6] [nM] | IC50 [7] [nM] | IC50 [8] [nM] | IC50 [9] [nM] | IC50 [10] [nM] | IC50 [11] [nM] | IC50 [12] [nM] | IC50 [13] [nM] | MTD [14] [mg/kg] | IC50 [15] [nM] | IC50 [16] [nM] | IC50 [17] [nM] | IC50 [18] [nM] | IC50 [19] [nM] | IC50 [20] [nM] | other results |
| --- | --- | --- | --- | --- | --- | --- | --- | --- | --- | --- | --- | --- | --- | --- | --- | --- | --- | --- | --- | --- | --- |
| COc1cc2c(Nc3ccc(Br)cc3F)ncnc2cc1OCCCN1CCCC1 [Compound 19, 4-(4-bromo-2-fluoroanilino)-6-methoxy-7-(3-(pyrrolidine-1-yl)propoxy)quinazoline] | 113 | 220 | 112 | 9.1 | 2060 | 4080 | 110 | 6.3 | 21.2 | 25.6 | 66.3 | 15.7 | 10.6 | 250 to 500 | 1060 | 4650 | 38.2 | 1430 | 3590 | 1090 | IC50 [21]: 561 nM; IC50 [22]: 1550 nM; IC50 [23]: 1660 nM; IC50 [24]: 0.1 nM; IC50 [25]: 2760 nM; IC50 [26]: 1960 nM |
| COc1cc2c(Nc3ccc(Br)cc3F)ncnc2cc1OCCCCN(C)C [Compound 28, 4-(4-bromo-2-fluoroanilino)-6-methoxy-7-(4-(dimethylamino)-butoxy)quinazoline] | 156 | 278 | 108 | 13.5 | 2270 | 4470 | 118 | 9.3 | 20.1 | 27.4 | 90.4 | 17.8 | 18.4 | 250 to 500 | 1360 | 4880 | 66.6 | 1920 | 4900 | 1610 | IC50 [21]: 704 nM; IC50 [22]: 1470 nM; IC50 [23]: 1470 nM; IC50 [24]: 0.1 nM; IC50 [25]: 3960 nM; IC50 [26]: 1830 nM |
| COc1cc2c(Nc3ccc(Br)cc3F)ncnc2cc1OCCCN(C)C [Compound 29, 4-(4-bromo-2-fluoroanilino)-6-methoxy-7-(3-(dimethylamino)-propoxy)quinazoline] | 246 | 260 | 102 | 13.4 | 2360 | 5150 | 127 | 7.1 | 23.8 | 30.8 | 127 | 24.6 | 17.4 | 125 to 250 | 2740 | 5420 | 45.6 | 2160 | 5880 | 1370 | IC50 [21]: 652 nM; IC50 [22]: 1830 nM; IC50 [23]: 2170 nM; IC50 [24]: 0.6 nM; IC50 [25]: 4450 nM; IC50 [26]: 2560 nM |
| COc1cc2c(Nc3ccc(Br)cc3F)ncnc2cc1OCCCCN1CCCC1 [Compound 30, 4-(4-bromo-2-fluoroanilino)-6-methoxy-7-(4-(pyrrolidin-1-yl)butoxy)quinazoline] | 247 | 261 | 196 | 14.6 | 2880 | 5150 | 126 | 7 | 27.5 | 25.9 | 118 | 25.8 | 15.7 | 250 to 500 | 1570 | 5520 | 43.2 | 1510 | 4570 | 1490 | IC50 [21]: 775 nM; IC50 [22]: 2010 nM; IC50 [23]: 2190 nM; IC50 [24]: 0.5 nM; IC50 [25]: 4190 nM; IC50 [26]: 2500 nM |
